Publication PMC5218480 (PLoS ONE, 2017)

System: MV-4-11 cells
Test: Gene expression microarray analysis (Affymetrix PrimeView) and GSEA
Assay type: cell-based, human
Design: RFU PODN (11730768_x_at) / Fold change /veh PODN (11730768_x_at) / RFU LINC00158 (11744669_a_at) / Fold change /veh LINC00158 (11744669_a_at) / RFU DUSP10 (11751237_a_at) / Fold change /veh DUSP10 (11751237_a_at) / RFU ID3 (11757404_x_at) / Fold change /veh ID3 (11757404_x_at) / RFU PLEKHG5 (11737974_s_at) / Fold change /veh PLEKHG5 (11737974_s_at) / RFU LRRC4B (11730491_at) / Fold change /veh LRRC4B (11730491_at) / RFU GIMAP4 (11747438_a_at) / Fold change /veh GIMAP4 (11747438_a_at) / RFU KRT8 (11758183_x_at) / Fold change /veh KRT8 (11758183_x_at) / RFU CNN1 (11734310_a_at) / Fold change /veh CNN1 (11734310_a_at) / RFU VPS37D (11726825_at) / Fold change /veh VPS37D (11726825_at) / RFU C10orf10 (11716522_x_at) / Fold change /veh C10orf10 (11716522_x_at) / RFU KIR2DL2 /// KIR2DL4 /// KIR2DL5A /// KIR2DL5B /// KIR2DS1 /// KIR2DS2 /// KIR2DS3 /// KIR2DS4 /// KIR3DL3 /// KIR3DL3 /// KIR3DS1 (11738374_at) / Fold change /veh KIR2DL2 /// KIR2DL4 /// KIR2DL5A /// KIR2DL5B /// KIR2DS1 /// KIR2DS2 /// KIR2DS3 /// KIR2DS4 /// KIR3DL3 /// KIR3DL3 /// KIR3DS1 (11738374_at) / RFU C1QL1 (11718748_at) / Fold change /veh C1QL1 (11718748_at) / RFU TMPRSS4 (11747572_a_at) / Fold change /veh TMPRSS4 (11747572_a_at) / RFU HAMP (11756126_x_at) / Fold change /veh HAMP (11756126_x_at) / RFU RNFT2 (11725882_a_at) / Fold change /veh RNFT2 (11725882_a_at) / RFU NR4A2 (11747474_a_at) / Fold change /veh NR4A2 (11747474_a_at) / RFU ABCC12 (11746883_a_at) / Fold change /veh ABCC12 (11746883_a_at) / RFU TMEM136 (11760407_x_at) / Fold change /veh TMEM136 (11760407_x_at) / RFU CLDN22 /// WWC2 (11732394_at) / Fold change /veh CLDN22 /// WWC2 (11732394_at) / RFU HLA-DPB1 (11760878_x_at) / Fold change /veh HLA-DPB1 (11760878_x_at) / RFU SPINT1 (11716480_a_at) / Fold change /veh SPINT1 (11716480_a_at) / RFU GAP43 (11754022_s_at) / Fold change /veh GAP43 (11754022_s_at) / RFU A4GNT (11735810_at) / Fold change /veh A4GNT (11735810_at) / RFU PRB3 (11715151_x_at) / Fold change /veh PRB3 (11715151_x_at) / RFU TUBB4B (11761932_at) / Fold change /veh TUBB4B (11761932_at) / RFU CAPN14 (11732068_a_at) / Fold change /veh CAPN14 (11732068_a_at) / RFU TMCC2 (11721928_a_at) / Fold change /veh TMCC2 (11721928_a_at) / RFU IRGQ (11745062_a_at) / Fold change /veh IRGQ (11745062_a_at) / RFU FAM174B (11720279_a_at) / Fold change /veh FAM174B (11720279_a_at) / RFU TMPRSS4 (11748680_a_at) / Fold change /veh TMPRSS4 (11748680_a_at) / RFU FAM212B (11763350_a_at) / Fold change /veh FAM212B (11763350_a_at) / RFU PLEKHG5 (11743358_a_at) / Fold change /veh PLEKHG5 (11743358_a_at) / RFU ZSCAN30 (11745921_a_at) / Fold change /veh ZSCAN30 (11745921_a_at) / RFU CMKLR1 (11741424_a_at) / Fold change /veh CMKLR1 (11741424_a_at) / RFU LOC101060620 /// MAPK8IP1 (11723275_at) / Fold change /veh LOC101060620 /// MAPK8IP1 (11723275_at) / RFU SPTSSB (11747773_x_at) / Fold change /veh SPTSSB (11747773_x_at) / RFU PRSS12 (11739890_at) / Fold change /veh PRSS12 (11739890_at) / RFU BIN1 (11741810_x_at) / Fold change /veh BIN1 (11741810_x_at) / RFU WNT11 (11732464_a_at) / Fold change /veh WNT11 (11732464_a_at) / RFU C10orf10 (11716521_a_at) / Fold change /veh C10orf10 (11716521_a_at) / RFU C5orf56 (11738089_at) / Fold change /veh C5orf56 (11738089_at) / RFU CYB561 (11721691_x_at) / Fold change /veh CYB561 (11721691_x_at) / RFU ANKRD19P (11752326_a_at) / Fold change /veh ANKRD19P (11752326_a_at) / RFU OR2T12 /// OR2T33 /// OR2T8 (11738714_s_at) / Fold change /veh OR2T12 /// OR2T33 /// OR2T8 (11738714_s_at) / RFU VCAN (11748164_a_at) / Fold change /veh VCAN (11748164_a_at) / RFU JSRP1 (11732532_at) / Fold change /veh JSRP1 (11732532_at) / RFU KRTAP10-11 (11738290_x_at) / Fold change /veh KRTAP10-11 (11738290_x_at) / RFU MYO3A (11730013_a_at) / Fold change /veh MYO3A (11730013_a_at) / RFU EBF3 (11725865_a_at) / Fold change /veh EBF3 (11725865_a_at) / RFU CAMK2N1 (11719241_x_at) / Fold change /veh CAMK2N1 (11719241_x_at) / RFU C5orf56 (11738088_a_at) / Fold change /veh C5orf56 (11738088_a_at) / RFU OLFML3 (11715873_a_at) / Fold change /veh OLFML3 (11715873_a_at) / RFU LOC100653217 /// NTM (11731650_a_at) / Fold change /veh LOC100653217 /// NTM (11731650_a_at) / RFU MAPK11 (11762145_a_at) / Fold change /veh MAPK11 (11762145_a_at) / RFU FIZ1 (11724087_x_at) / Fold change /veh FIZ1 (11724087_x_at) / RFU OASL (11726364_x_at) / Fold change /veh OASL (11726364_x_at) / RFU SOX15 (11748057_x_at) / Fold change /veh SOX15 (11748057_x_at) / RFU CD79A (11719716_a_at) / Fold change /veh CD79A (11719716_a_at) / RFU HIST1H1D (11736915_at) / Fold change /veh HIST1H1D (11736915_at) / RFU CASKIN2 (11723855_a_at) / Fold change /veh CASKIN2 (11723855_a_at) / RFU LOC730098 (11760151_x_at) / Fold change /veh LOC730098 (11760151_x_at) / RFU OR4N2 (11742367_at) / Fold change /veh OR4N2 (11742367_at) / RFU PRRT2 (11749266_a_at) / Fold change /veh PRRT2 (11749266_a_at) / RFU SNX32 (11753110_a_at) / Fold change /veh SNX32 (11753110_a_at) / RFU CDHR5 (11726645_a_at) / Fold change /veh CDHR5 (11726645_a_at) / RFU RCAN1 (11760418_a_at) / Fold change /veh RCAN1 (11760418_a_at) / RFU FAM167A (11723789_a_at) / Fold change /veh FAM167A (11723789_a_at) / RFU FAM26E (11764081_at) / Fold change /veh FAM26E (11764081_at) / RFU ISYNA1 (11749810_s_at) / Fold change /veh ISYNA1 (11749810_s_at) / RFU ACY1 (11761880_at) / Fold change /veh ACY1 (11761880_at) / RFU 11764098_at / Fold change /veh 11764098_at / RFU SAMD14 (11745864_x_at) / Fold change /veh SAMD14 (11745864_x_at) / RFU NPB (11741838_a_at) / Fold change /veh NPB (11741838_a_at) / RFU TMPRSS6 (11731388_a_at) / Fold change /veh TMPRSS6 (11731388_a_at) / RFU KRTAP10-2 (11738614_at) / Fold change /veh KRTAP10-2 (11738614_at) / RFU ARHGAP8 /// PRR5-ARHGAP8 (11727945_x_at) / Fold change /veh ARHGAP8 /// PRR5-ARHGAP8 (11727945_x_at) / RFU KRTAP5-7 /// NADSYN1 (11734609_at) / Fold change /veh KRTAP5-7 /// NADSYN1 (11734609_at) / RFU RASL12 (11751679_a_at) / Fold change /veh RASL12 (11751679_a_at) / RFU CDKN2B (11736163_a_at) / Fold change /veh CDKN2B (11736163_a_at) / RFU PRF1 (11729649_at) / Fold change /veh PRF1 (11729649_at) / RFU, ZNF638 /// ZNF638-IT1 / Fold change vs veh, ZNF638 /// ZNF638-IT1 / RFU, PANK3 / Fold change vs veh, PANK3 / RFU, SH3YL1 / Fold change vs veh, SH3YL1 / RFU, ZEB2 / Fold change vs veh, ZEB2 / RFU, NRIP1 / Fold change vs veh, NRIP1 / RFU, PTTG1IP / Fold change vs veh, PTTG1IP / RFU, CAPN2 / Fold change vs veh, CAPN2 / RFU, MED14 / Fold change vs veh, MED14 / RFU, SNORA58 / Fold change vs veh, SNORA58 / RFU, C1orf63 / Fold change vs veh, C1orf63 / RFU, LRRFIP1 / Fold change vs veh, LRRFIP1 / RFU, NDUFAF7 / Fold change vs veh, NDUFAF7 / RFU, SLC12A2 / Fold change vs veh, SLC12A2 / RFU, IBTK / Fold change vs veh, IBTK / RFU, ESF1 / Fold change vs veh, ESF1 / Fold change vs veh, TMEM50B / RFU, TAOK1 / Fold change vs veh, TAOK1 / RFU, ACBD3 / Fold change vs veh, ACBD3 / RFU, TMA16 / Fold change vs veh, TMA16 / RFU, RWDD3 / Fold change vs veh, RWDD3 / RFU, BCAT1 / Fold change vs veh, BCAT1 / RFU, EDEM3 / Fold change vs veh, EDEM3 / RFU, TMEM33 / Fold change vs veh, TMEM33 / RFU, WDR75 / Fold change vs veh, WDR75 / RFU, AHCTF1 / Fold change vs veh, AHCTF1 / RFU, TFRC / Fold change vs veh, TFRC / RFU, ZDHHC17 / Fold change vs veh, ZDHHC17 / RFU, NOM1 / Fold change vs veh, NOM1 / RFU, ARL8B / Fold change vs veh, ARL8B / RFU, ZBTB11 / Fold change vs veh, ZBTB11 / RFU, TAMM41 / Fold change vs veh, TAMM41 / RFU, KIAA1704 /// LOC100996395 / Fold change vs veh, KIAA1704 /// LOC100996395 / RFU, ING1 / Fold change vs veh, ING1 / RFU, TRMT61B / Fold change vs veh, TRMT61B / RFU, FUBP3 / Fold change vs veh, FUBP3 / RFU, TP53 / Fold change vs veh, TP53 / RFU, TNKS2 / Fold change vs veh, TNKS2 / RFU, ZFP14 / Fold change vs veh, ZFP14 / RFU, ACTR2 / Fold change vs veh, ACTR2 / RFU, PPP3R1 / Fold change vs veh, PPP3R1 / RFU, PIK3R1 / Fold change vs veh, PIK3R1 / RFU, HNRNPA1 / Fold change vs veh, HNRNPA1 / RFU, RNF170 / Fold change vs veh, RNF170 / RFU, ZNF28 / Fold change vs veh, ZNF28 / RFU, RNGTT / Fold change vs veh, RNGTT / RFU, OGT / Fold change vs veh, OGT / RFU, BRD1 / Fold change vs veh, BRD1 / RFU, MARS / Fold change vs veh, MARS / RFU, ZNF655 / Fold change vs veh, ZNF655 / RFU, FAHD1 / Fold change vs veh, FAHD1 / RFU, BDP1 / Fold change vs veh, BDP1 / RFU, LRRCC1 / Fold change vs veh, LRRCC1 / RFU, ARID1A / Fold change vs veh, ARID1A / RFU, ZNF146 / Fold change vs veh, ZNF146 / RFU, ZNF330 / Fold change vs veh, ZNF330 / RFU, GPN3 / Fold change vs veh, GPN3 / RFU, C9orf123 / Fold change vs veh, C9orf123 / RFU, N4BP2L2 / Fold change vs veh, N4BP2L2 / RFU, ARFIP1 / Fold change vs veh, ARFIP1 / RFU, FAM179B / Fold change vs veh, FAM179B / RFU, BCL10 / Fold change vs veh, BCL10 / RFU, UHRF1BP1L / Fold change vs veh, UHRF1BP1L / RFU, BET1 / Fold change vs veh, BET1 / RFU, CNOT2 / Fold change vs veh, CNOT2 / RFU, ZNF268 / Fold change vs veh, ZNF268 / Fold change vs veh, ZNF507 / RFU, DGCR2 / Fold change vs veh, DGCR2 / RFU, WDSUB1 / Fold change vs veh, WDSUB1 / Fold change vs veh, HSP90B1 /// MIR3652 / RFU, ADSS / Fold change vs veh, ADSS / RFU, GK / Fold change vs veh, GK / RFU, ZNF148 / Fold change vs veh, ZNF148 / RFU, TAF9 / Fold change vs veh, TAF9 / RFU, SLC1A5 / Fold change vs veh, SLC1A5 / RFU, SLMO2 / Fold change vs veh, SLMO2 / RFU, ABCC4 / Fold change vs veh, ABCC4 / RFU, LOC101060439 /// RAP1B / Fold change vs veh, LOC101060439 /// RAP1B / RFU, RFX7 / Fold change vs veh, RFX7 / RFU, GTPBP10 / Fold change vs veh, GTPBP10 / RFU, CNEP1R1 / Fold change vs veh, CNEP1R1 / RFU, BIVM-ERCC5 /// ERCC5 / Fold change vs veh, BIVM-ERCC5 /// ERCC5 / RFU, ILF3 / Fold change vs veh, ILF3 / RFU 11762660_at / Fold change /veh 11762660_at / RFU VCAN (11757783_s_at) / Fold change /veh VCAN (11757783_s_at) / RFU DDX43 (11728927_at) / Fold change /veh DDX43 (11728927_at) / RFU KRT8 (11758188_x_at) / Fold change /veh KRT8 (11758188_x_at) / RFU NKD1 (11759106_at) / Fold change /veh NKD1 (11759106_at) / RFU SRD5A1 (11742802_a_at) / Fold change /veh SRD5A1 (11742802_a_at) / RFU TPSAB1 /// TPSB2 (11721975_s_at) / Fold change /veh TPSAB1 /// TPSB2 (11721975_s_at) / RFU GSTM3 (11746129_a_at) / Fold change /veh GSTM3 (11746129_a_at) / RFU IL23R (11737362_x_at) / Fold change /veh IL23R (11737362_x_at) / RFU TMEM51 (11727254_a_at) / Fold change /veh TMEM51 (11727254_a_at) / RFU PIWIL2 (11732686_x_at) / Fold change /veh PIWIL2 (11732686_x_at) / RFU ORM1 (11744905_x_at) / Fold change /veh ORM1 (11744905_x_at) / RFU CCDC152 (11743942_at) / Fold change /veh CCDC152 (11743942_at) / RFU ECM1 (11717891_a_at) / Fold change /veh ECM1 (11717891_a_at) / RFU IL23R (11748794_a_at) / Fold change /veh IL23R (11748794_a_at) / RFU TNFAIP8L3 (11732012_x_at) / Fold change /veh TNFAIP8L3 (11732012_x_at) / RFU MBOAT4 (11741988_at) / Fold change /veh MBOAT4 (11741988_at) / RFU 11764193_at / Fold change /veh 11764193_at / RFU TMEM53 (11763286_at) / Fold change /veh TMEM53 (11763286_at) / RFU MAGEB2 (11727129_at) / Fold change /veh MAGEB2 (11727129_at) / RFU TMEM200A (11744735_a_at) / Fold change /veh TMEM200A (11744735_a_at) / RFU CCDC152 (11751479_a_at) / Fold change /veh CCDC152 (11751479_a_at) / RFU FAM211A (11726209_a_at) / Fold change /veh FAM211A (11726209_a_at) / RFU RGS16 (11746705_a_at) / Fold change /veh RGS16 (11746705_a_at) / RFU VCAN (11755009_s_at) / Fold change /veh VCAN (11755009_s_at) / RFU RHOB (11743442_s_at) / Fold change /veh RHOB (11743442_s_at) / RFU RGS16 (11720943_a_at) / Fold change /veh RGS16 (11720943_a_at) / RFU RGS16 (11720944_at) / Fold change /veh RGS16 (11720944_at) / RFU, VPS4B / Fold change vs veh, VPS4B / RFU, CREB1 / Fold change vs veh, CREB1 / RFU, DNAJC13 / Fold change vs veh, DNAJC13 / RFU, GNAQ / Fold change vs veh, GNAQ / RFU, CDK5R1 / Fold change vs veh, CDK5R1 / RFU, ZRANB3 / Fold change vs veh, ZRANB3 / RFU, CUL4A / Fold change vs veh, CUL4A / RFU, CCNY / Fold change vs veh, CCNY / RFU, UFL1 / Fold change vs veh, UFL1 / RFU, COG3 / Fold change vs veh, COG3 / RFU, DIAPH2 / Fold change vs veh, DIAPH2 / RFU, SKA2 / Fold change vs veh, SKA2 / RFU, AFF3 / Fold change vs veh, AFF3 / RFU, LMF1 / Fold change vs veh, LMF1 / RFU, IPO11 / Fold change vs veh, IPO11 / RFU, DFFB / Fold change vs veh, DFFB / RFU, FOXP1 / Fold change vs veh, FOXP1 / RFU, CARD8 / Fold change vs veh, CARD8 / RFU, STRN3 / Fold change vs veh, STRN3 / RFU, ADK / Fold change vs veh, ADK / RFU, RASSF2 / Fold change vs veh, RASSF2 / RFU, WIPF1 / Fold change vs veh, WIPF1 / RFU, LARP1B / Fold change vs veh, LARP1B / RFU, RASA1 / Fold change vs veh, RASA1 / RFU, RB1 / Fold change vs veh, RB1 / RFU, PPFIA1 / Fold change vs veh, PPFIA1 / RFU, MAT2A / Fold change vs veh, MAT2A / RFU, CCT5 / Fold change vs veh, CCT5 / RFU, WDR92 / Fold change vs veh, WDR92 / RFU, CUX1 / Fold change vs veh, CUX1 / RFU, TTC7A / Fold change vs veh, TTC7A / RFU, TMEM135 / Fold change vs veh, TMEM135 / RFU, DEPTOR / Fold change vs veh, DEPTOR / RFU, CPM / Fold change vs veh, CPM / RFU, DNAJB6 / Fold change vs veh, DNAJB6 / RFU, CACNA2D3 / Fold change vs veh, CACNA2D3 / RFU, DTX4 / Fold change vs veh, DTX4 / RFU, TFCP2 / Fold change vs veh, TFCP2 / RFU, GMCL1 /// GMCL1P1 / Fold change vs veh, GMCL1 /// GMCL1P1 / RFU, AEBP2 / Fold change vs veh, AEBP2 / RFU, SNHG1 /// SNORD22 /// SNORD25 /// SNORD26 /// SNORD27 /// SNORD28 /// SNORD29 /// SNORD31 / Fold change vs veh, SNHG1 /// SNORD22 /// SNORD25 /// SNORD26 /// SNORD27 /// SNORD28 /// SNORD29 /// SNORD31 / Fold change (Aza/veh), C12orf56 (ProbeSet 11735607_a_at) / Fold change (ACY-1035/veh), C12orf56 (ProbeSet 11735607_a_at) / Fold change (Aza/veh), FGFR1OP (ProbeSet 11751329_s_at) / Fold change (ACY-1035/veh), FGFR1OP (ProbeSet 11751329_s_at) / Fold change (Aza/veh), VPS36 (ProbeSet 11739960_a_at) / Fold change (ACY-1035/veh), VPS36 (ProbeSet 11739960_a_at) / RFU SYPL1 (11715823_x_at) / Fold change /veh SYPL1 (11715823_x_at) / RFU IGFBP7 (11715501_s_at) / Fold change /veh IGFBP7 (11715501_s_at) / RFU REEP3 (11722064_at) / Fold change /veh REEP3 (11722064_at) / RFU IGLL1 (11728026_x_at) / Fold change /veh IGLL1 (11728026_x_at): dose or concentration left out as unconfirmed
Details: ProbeSet 11727641_at; LIST B

SMILES: Nc1ncn([C@@H]2O[C@H](CO)[C@@H](O)[C@H]2O)c(=O)n1 [azacitidine]
- Fold change vs veh, NOM1: 1.06
